Laboratory results as given in US9226916B2, “Pyrrolidine derivatives” (HOFFMANN-LA ROCHE INC., priority 2009, dated 2016).
Where two headings read alike, the source gives them in different places.

Biological target: T1, recombinant human NK3 receptor (Homo sapiens, UniProt P29371)
T1 construct: expressed in transfected cells; host or cells: HEK293 cells, transient expression; membranes
T1 sequence (P29371 1-465): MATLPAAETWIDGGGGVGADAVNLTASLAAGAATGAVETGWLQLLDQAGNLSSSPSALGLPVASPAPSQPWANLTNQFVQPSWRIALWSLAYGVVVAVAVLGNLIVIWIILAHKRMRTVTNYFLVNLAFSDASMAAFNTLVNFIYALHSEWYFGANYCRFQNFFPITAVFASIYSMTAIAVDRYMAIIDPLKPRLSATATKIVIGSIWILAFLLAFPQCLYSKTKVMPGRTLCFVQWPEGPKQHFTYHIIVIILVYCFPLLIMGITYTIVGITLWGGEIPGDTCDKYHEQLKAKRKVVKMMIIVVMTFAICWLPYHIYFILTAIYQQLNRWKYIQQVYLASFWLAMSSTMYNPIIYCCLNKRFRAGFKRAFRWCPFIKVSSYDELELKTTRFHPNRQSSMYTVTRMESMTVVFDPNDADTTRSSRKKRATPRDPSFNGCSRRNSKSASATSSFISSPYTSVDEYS
Experiment: [3H]SR142801 competition binding assay

[1] = hNK-3 receptor affinity, membranes from HEK293 cells transiently expressing recombinant human NK3 receptor, [3H]SR142801, Cheng-Prussoff, read-out: Data Ki

Ki [1] | SMILES | Ki
1.4 nM | CN(C(=O)OCCCC(F)(F)F)[C@@H]1CN(C(=O)C2CCN(C(=O)C3(C)CC3)CC2)C[C@H]1c1ccc(Cl)c(Cl)c1 [Example 82, {(3S,4R)-4-(3,4-Dichloro-phenyl)-1-[1-(1-methyl-cyclopropanecarbonyl)-piperidine-4-carbonyl]-pyrrolidin-3-yl}-methyl-carbamic acid 4,4,4-trifluoro-butyl ester] | –
– | CN(C(=O)Oc1ccc(F)cc1)[C@@H]1CN(C(=O)[C@H]2CC[C@H](O)CC2)C[C@H]1c1ccc(Cl)cc1 [Example 89, [(3S,4R)-4-(4-Chloro-phenyl)-1-(4-hydroxy-cyclohexanecarbonyl)-pyrrolidin-3-yl]-methyl-carbamic acid 4-fluoro-phenyl ester] | 20.2 nM
– | CN(C(=O)Oc1ccc(F)cc1)[C@@H]1CN(C(=O)C2CCOCC2)C[C@H]1c1ccc(Cl)cc1 [Example 90, [(3S,4R)-4-(4-Chloro-phenyl)-1-(tetrahydro-pyran-4-carbonyl)-pyrrolidin-3-yl]-methyl-carbamic acid 4-fluoro-phenyl ester] | 7.9 nM
– | CN(C(=O)Oc1ccc(F)cc1)[C@@H]1CN(C(=O)C2CCS(=O)(=O)CC2)C[C@H]1c1ccc(Cl)cc1 [Example 93, [(3S,4R)-4-(4-Chloro-phenyl)-1-(1,1-dioxo-hexahydro-1λ^6-thiopyran-4-carbonyl)-pyrrolidin-3-yl]-methyl-carbamic acid 4-fluoro-phenyl ester] | 6.6 nM
– | CN(C(=O)Oc1ccc(F)cc1)[C@@H]1CN(C(=O)C2CCN(c3ccc(C#N)cn3)CC2)C[C@H]1c1ccc(Cl)cc1 [Example 94, [(3S,4R)-4-(4-Chloro-phenyl)-1-(5′-cyano-3,4,5,6-tetrahydro-2H-[1,2′]bipyridinyl-4-carbonyl)-pyrrolidin-3-yl]-methyl-carbamic acid 4-fluoro-phenyl ester] | 0.2 nM
12.2 nM | CN(C(=O)OCCCC(F)(F)F)[C@H]1CN(C(=O)C2CCN(C(=O)C3(C)CC3)CC2)C[C@@H]1c1ccc(Cl)cc1 [Example 100, {(3R,4S)-4-(4-Chloro-phenyl)-1-[1-(1-methyl-cyclopropanecarbonyl)-piperidine-4-carbonyl]-pyrrolidin-3-yl}-methyl-carbamic acid 4,4,4-trifluoro-butyl ester] | –
– | CN(C(=O)Oc1ccc(F)cc1)[C@@H]1CN(C(=O)[C@H]2CC[C@H](C#N)CC2)C[C@H]1c1ccc(Cl)cc1 [Example 104, [(3S,4R)-4-(4-Chloro-phenyl)-1-(4-cyano-cyclohexanecarbonyl)-pyrrolidin-3-yl]-methyl-carbamic acid 4-fluoro-phenyl ester] | 7.4 nM
70.5 nM | CN(C(=O)OCC1(C)CC1)[C@@H]1CN(C(=O)C2CCN(C(=O)C3(C)CC3)CC2)C[C@H]1c1ccc(Cl)c(Cl)c1 [Example 105, {(3S,4R)-4-(3,4-Dichloro-phenyl)-1-[1-(1-methyl-cyclopropanecarbonyl)-piperidine-4-carbonyl]-pyrrolidin-3-yl}-methyl-carbamic acid 1-methyl-cyclopropylmethyl ester] | –
1 nM | CN(C(=O)OCC1(C)CC1)[C@H]1CN(C(=O)C2CCN(C(=O)C3(C)CC3)CC2)C[C@@H]1c1ccc(Cl)c(Cl)c1 [Example 106, {(3R,4S)-4-(3,4-Dichloro-phenyl)-1-[1-(1-methyl-cyclopropanecarbonyl)-piperidine-4-carbonyl]-pyrrolidin-3-yl}-methyl-carbamic acid 1-methyl-cyclopropylmethyl ester] | –
58.6 nM | CN(C(=O)O[C@H]1CC[C@@H](C(F)(F)F)CC1)[C@H]1CN(C(=O)C2CCN(C(=O)C3(C)CC3)CC2)C[C@@H]1c1ccc(Cl)c(Cl)c1 [Example 107, {(3R,4S)-4-(3,4-Dichloro-phenyl)-1-[1-(1-methyl-cyclopropanecarbonyl)-piperidine-4-carbonyl]-pyrrolidin-3-yl}-methyl-carbamic acid 4-trifluoromethyl-cyclohexyl ester] | –
0.7 nM | CN(C(=O)O[C@H]1CC[C@@H](C(F)(F)F)CC1)[C@@H]1CN(C(=O)C2CCN(C(=O)C3(C)CC3)CC2)C[C@H]1c1ccc(Cl)c(Cl)c1 [Example 108, {(3S,4R)-4-(3,4-Dichloro-phenyl)-1-[1-(1-methyl-cyclopropanecarbonyl)-piperidine-4-carbonyl]-pyrrolidin-3-yl}-methyl-carbamic acid 4-trifluoromethyl-cyclohexyl ester] | –
– | CN(C(=O)Oc1ccc(F)cc1)[C@@H]1CN(C(=O)C2CCN(C3CCS(=O)(=O)CC3)CC2)C[C@H]1c1ccc(Cl)cc1 [Example 109, {(3S,4R)-4-(4-Chloro-phenyl)-1-[1-(1,1-dioxo-hexahydro-1λ^6-thiopyran-4-yl)-piperidine-4-carbonyl]-pyrrolidin-3-yl}-methyl-carbamic acid 4-fluoro-phenyl ester] | 0.2 nM
– | CN(C(=O)Oc1ccc(F)cc1)[C@@H]1CN(C(=O)C2CCN(c3ccc(Cl)nn3)CC2)C[C@H]1c1ccc(Cl)cc1 [Example 110, {(3S,4R)-4-(4-Chloro-phenyl)-1-[1-(6-chloro-pyridazin-3-yl)-piperidine-4-carbonyl]-pyrrolidin-3-yl}-methyl-carbamic acid 4-fluoro-phenyl ester] | 0.3 nM
– | CN(C(=O)Oc1ccc(F)cc1)[C@@H]1CN(C(=O)C2CCN(C3CCOCC3)CC2)C[C@H]1c1ccc(Cl)cc1 [Example 112, {(3S,4R)-4-(4-Chloro-phenyl)-1-[1-(tetrahydro-pyran-4-yl)-piperidine-4-carbonyl]-pyrrolidin-3-yl}-methyl-carbamic acid 4-fluoro-phenyl ester] | 3.7 nM
– | CN(C(=O)Oc1ccc(F)c(Br)c1)[C@@H]1CN(C(=O)C2CCN(C(=O)C3(C)CC3)CC2)C[C@H]1c1ccc(Cl)c(Cl)c1 [Example 113, {(3S,4R)-4-(3,4-Dichloro-phenyl)-1-[1-(1-methyl-cyclopropanecarbonyl)-piperidine-4-carbonyl]-pyrrolidin-3-yl}-methyl-carbamic acid 3-bromo-4-fluoro-phenyl ester] | 0.3 nM
– | CN(C(=O)Oc1ccc(F)cc1)[C@@H]1CN(C(=O)CCN2CCOCC2)C[C@H]1c1ccc(Cl)cc1 [Example 114, [(3S,4R)-4-(4-Chloro-phenyl)-1-(3-morpholin-4-yl-propionyl)-pyrrolidin-3-yl]-methyl-carbamic acid 4-fluoro-phenyl ester] | 83 nM
– | CN(C(=O)Oc1ccc(F)cc1)[C@@H]1CN(C(=O)C2CCN(C3CCS(=O)(=O)C3)CC2)C[C@H]1c1ccc(Cl)cc1 (stereo partly drawn) [Example 115, {(3S,4R)-4-(4-Chloro-phenyl)-1-[1-(1,1-dioxo-tetrahydro-1λ^6-thiophen-3-yl)-piperidine-4-carbonyl]-pyrrolidin-3-yl}-methyl-carbamic acid 4-fluoro-phenyl ester] | 1.3 nM
– | CN(C(=O)Oc1ccc(F)cc1)[C@@H]1CN(C(=O)C2CCC(CO)CC2)C[C@H]1c1ccc(Cl)cc1 (stereo partly drawn) [Example 116, [(3S,4R)-4-(4-Chloro-phenyl)-1-(4-hydroxymethyl-cyclohexanecarbonyl)-pyrrolidin-3-yl]-methyl-carbamic acid 4-fluoro-phenyl ester] | 10 nM
– | CN(C(=O)Oc1ccc(F)cc1)[C@@H]1CN(C(=O)C2CCC(F)(F)CC2)C[C@H]1c1ccc(Cl)cc1 [Example 117, [(3S,4R)-4-(4-Chloro-phenyl)-1-(4,4-difluoro-cyclohexanecarbonyl)-pyrrolidin-3-yl]-methyl-carbamic acid 4-fluoro-phenyl ester] | 17.4 nM
– | Cc1ccc(N2CCC(C(=O)N3C[C@@H](N(C)C(=O)Oc4ccc(F)cc4)[C@H](c4ccc(Cl)cc4)C3)CC2)nn1 [Example 118, {(3S,4R)-4-(4-Chloro-phenyl)-1-[1-(6-methyl-pyridazin-3-yl)-piperidine-4-carbonyl]-pyrrolidin-3-yl}-methyl-carbamic acid 4-fluoro-phenyl ester] | 0.3 nM
– | CN(C(=O)Oc1ccc(F)cc1)[C@H]1CN(C(=O)C2CCN(c3ccc(C#N)cn3)CC2)C[C@@H]1c1ccc(Cl)cc1 [Example 122, [(3R,4S)-4-(4-Chloro-phenyl)-1-(5′-cyano-3,4,5,6-tetrahydro-2H-[1,2′]bipyridinyl-4-carbonyl)-pyrrolidin-3-yl]-methyl-carbamic acid 4-fluoro-phenyl ester] | 19 nM
50.9 nM | CN(C(=O)O[C@H]1CC[C@H](C(F)(F)F)CC1)[C@H]1CN(C(=O)C2CCN(c3ccc(C#N)cn3)CC2)C[C@@H]1c1ccc(Cl)cc1 [Example 125, [(3R,4S)-4-(4-Chloro-phenyl)-1-(5′-cyano-3,4,5,6-tetrahydro-2H-[1,2′]bipyridinyl-4-carbonyl)-pyrrolidin-3-yl]-methyl-carbamic acid 4-trifluoromethyl-cyclohexyl ester] | –
1.2 nM | CN(C(=O)O[C@H]1CC[C@H](C(F)(F)F)CC1)[C@@H]1CN(C(=O)C2CCN(c3ccc(C#N)cn3)CC2)C[C@H]1c1ccc(Cl)cc1 [Example 126, [(3S,4R)-4-(4-Chloro-phenyl)-1-(5′-cyano-3,4,5,6-tetrahydro-2H-[1,2′]bipyridinyl-4-carbonyl)-pyrrolidin-3-yl]-methyl-carbamic acid 4-trifluoromethyl-cyclohexyl ester] | –
– | CN(C(=O)OCCCC(F)(F)F)[C@@H]1CN(C(=O)C2CCN(c3ccc(C#N)cn3)CC2)C[C@H]1c1ccc(Cl)cc1 [Example 127, [(3S,4R)-4-(4-Chloro-phenyl)-1-(5′-cyano-3,4,5,6-tetrahydro-2H-[1,2′]bipyridinyl-4-carbonyl)-pyrrolidin-3-yl]-methyl-carbamic acid 4,4,4-trifluoro-butyl ester] | 4 nM
